“Also recorded” adds a separate entry of the source.
Columns and labels:
pMCAO in rats [1] = test: Further pMCAO studies, treatment paradigms (first dose 2, 6 or 24 hours post-occlusion); type: in vivo, rat; settings: for neurological function following pMCAO vs vehicle: 5 total doses, 3-week period; for neurological function following pMCAO, long-term: additional 3 months
Excerpt: Rats were subjected to pMCAO and treated with either the compound of Example 2 delivered intravenously into rat tail vein [iv vehicle: 5% Tween 80, 5% PEG 400, 4% ethanol] or vehicle alone. Three different treatment paradigms were used to determine the clinical relevance of the compound of Example 2. Long-term sensorimotor deficits are monitored (tactile/proprioceptive/hindlimb placement tests) over a 3-week and 6-month period. The animals are scored on a scale of 0-12 (normal to severe neurological deficits).
In the first study, the first dose of 10 mg/kg of the compound of Example 2 is given 2 hours post-occlusion, followed by 4 additional doses, 24 hours apart (5 total doses). Neurological deficits were monitored over a 3-week period.
In the second study, the first dose of the compound of Example 2 is given 6 hours post-occlusion, followed by 4 additional doses, 24 hours apart (5 total doses). Neurological deficits were monitored over a 3-week period.
These animals were maintained for an additional 3 months. During this period, neurological deficits were continually monitored, to determine whether the effect seen at 21 days is stable and long lasting.
In the third study, the first dose of the compound of Example 2 is given 24 hours post-occlusion, followed by 4 additional doses, 24 hours apart (5 total doses). Neurological deficits were monitored over a 3-week period.
Brains from animals in the third study were collected and processed for neuronal, regenerative, and cell death markers.

pMCAO in rats [2] = test: Permanent occlusion of middle cerebral artery (pMCAO), Example 10, behavioral deficit scoring over 21 days; type: in vivo, Wistar rats; settings: 10 mg/kg i.v. 1.5, 5.5, 24, 48 and 72 hours post ischemia
Protocol: Administration of Compound of Example 2—10 mg/kg i.v. 1.5, 5.5, 24, 48, and 72 hours post ischemia.
Adult male Wistar rats (Charles River, Wilmington, Mass.) 270 g to 300 g were anesthetized with 3% isoflurane in 70% nitrous oxide and 30% oxygen through a nose cone. Temperature was maintained at 37° C. throughout the surgery using a heating lamp. Permanent occlusion of MCAO was induced by electro cauterization of the distal portion of the MCA (via a craniotomy) with a 90 minute ligation of both carotid arteries to interrupt collateral circulation (Chen S T, Hsu C Y, Hogan E L, Maricq H Balentine J D (1986) A model of focal ischemic stroke in the rat: reproducible extensive cortical infarction. Stroke 17:738-743). Compound was administered 10 mg/kg i.v. 1.5, 5.5, 24, 48, and 72 hours post ischemia. Rats were kept for 21 days for long-term functional recovery evaluation. […] Rats extending both forelimbs toward the table were scored as 0, flexing contralateral limb toward the body and/or rotating the contralateral shoulder and limb medially were scored as 1, and rolling up the body toward the contralateral side and attempting to grasp the tail were scored as 2. […] Rats retracting hind limb back on bench top immediately were scored as 0, delaying (>2 seconds) were scored as 1, and unable to retract hind limb were score as 2. […]

cortical neuron cultures = test: Cortical neuron assay (neurite outgrowth in dissociated cortical neuron cultures); type: cell-based, rat
Protocol: Dissociated cortical neuron cultures were prepared as previously described (Liu et al., Screening of Immunophilin Ligands by Quantitative Analysis of Neurofilament Expression and Neurite Outgrowth in Cultured Neurons and Cells, J. Neurosci. Methods, 2007 Jul. 30; 163(2):310-20).
Briefly, embryonic day 15 rat fetuses were collected and dissected in ice-cold PBS. Dissected cortices were pooled together and transferred to an enzymatic dissociation medium containing papain. After 30 minutes, the tissue was mechanically triturated with a fire-polished glass Pasteur pipette. Single-cell suspensions in complete media were seeded on poly-L-ornithine and laminin coated 96-well plates. After 24 hours, cultures were treated with various concentrations of compound for 72 hours. The cultures were then fixed and stained with an anti-tubulin primary antibody (TUJ-1) and a fluorescent-tagged secondary antibody. Neurite outgrowth was determined by using the Enhanced Neurite Outgrowth (ENO) algorithm with the Cellomics ArrayScan and expressed as average neurite length or total neurite length per cell.

[3] = 10 mg/kg iv, first dose 6 hours post-occlusion
[4] = 30 mg/kg iv, first dose 6 hours post-occlusion
[5] = 30 mg/kg, third study (first dose 24 hours post-occlusion)
[6] = 6 hour post-occlusion, dose not stated

CO[C@H]1C[C@@H]2CC[C@@H](C)[C@@](O)(O2)C(=O)C(=O)N2CCCC[C@H]2C(=O)O[C@H]([C@H](C)C[C@@H]2CC[C@@H](O)[C@H](OC)C2)CC(=O)[C@H](C)/C=C(\C)[C@@H](O)[C@@H](OC)C(=O)[C@H](C)C[C@H](C)[C@@H]2CC[C@H](/C=C/1C)ON2c1ccccc1 [Example 2, 9,27-dihydroxy-3-{2-[4-hydroxy-3-methoxycyclohexyl]-1-methylethyl}-10,21-dimethoxy-6,8,12,14,20,26-hexamethyl-37-phenyl-4,9,10,12,13,14,15,16,17,18,21,22,23,24,25,26,27,32,33,34,34a-henicosahydro-3H-23,27-epoxy-18,15-(epoxyimino)pyrido[2,1-c][1,4]oxazacyclohentriacontine-1,5,11,28,29(6H,31H)-pentone]
neurological function following pMCAO vs vehicle (pMCAO in rats [1]; 3 mg/kg iv, first dose 6 hours post-occlusion): did not improve neurological function
neurological function following pMCAO vs vehicle (pMCAO in rats [1]; 3 mg/kg iv, first dose 24 hours post-occlusion): did not improve neurological function
neurological function following pMCAO vs vehicle (pMCAO in rats [1]; 10 mg/kg iv, first dose 2 hours post-occlusion): significantly improved and accelerated neurological function; also recorded: improves neurological function
neurological function following pMCAO vs vehicle (pMCAO in rats [1]; [3]): significantly improved and accelerated neurological function
neurological function following pMCAO, long-term (pMCAO in rats [1]; [3]): further improved neurological function and this improvement was stable and long lasting
neurological function following pMCAO vs vehicle (pMCAO in rats [1]; 10 mg/kg iv, first dose 24 hours post-occlusion): did not improve neurological function
neurological function following pMCAO vs vehicle (pMCAO in rats [1]; [4]): significantly improved and accelerated neurological function
neurological function following pMCAO, long-term (pMCAO in rats [1]; [4]): further improved neurological function and this improvement was stable and long lasting
neurological function following pMCAO vs vehicle (pMCAO in rats [1]; 30 mg/kg iv, first dose 24 hours post-occlusion): significantly improved and accelerated neurological function
apoptotic cell death (TUNEL labeling) in the hippocampus (pMCAO in rats [1]; [5]): reducing apoptotic cell death
neuroprotection (Neu-N positive cells) in the hippocampus (pMCAO in rats [1]; [5]): promotes neuroprotection
neuroregeneration (GAP-43 labeling) in the cortex (pMCAO in rats [1]; [5]): promotes neuroregeneration in the cortex
neurological function following pMCAO (3-weeks) in rats (FIG. 12) (pMCAO in rats [1]; [6]): improves neurological function
neurological function following pMCAO (3 months) in rats (FIG. 13) (pMCAO in rats [1]; [6]): improves neurological function
neurological function following pMCAO (3 weeks) in rats (FIG. 14) (pMCAO in rats [1]; 24 hour post-occlusion, dose not stated): improves neurological function
neuroregeneration in the hippocampus (FIG. 15) (pMCAO in rats [1]; dose not stated): promotes neuroregeneration in the hippocampus
therapeutic window (time of first administration after onset of stroke) (pMCAO in rats [1]; rat models of ischemic stroke): at least 24 hours
behavior deficit scoring (total score 0 to 12) following pMCAO (pMCAO in rats [2]): statistically significant reduction of behavior deficit scoring
EC50 (cortical neuron cultures; Rattus norvegicus, Cortical neurone, 72 hours treatment, neurite outgrowth, read-out: EC50 in cortical neuron assays): < 1 µM
neuronal survival and neurite outgrowth in cultured cortical neurons (cortical neuron cultures; summary statement): promotes neuronal survival and neurite outgrowth

Reference: patent publication US20090209527A1, “Methods for Using Rapamycin Analogues in the Treatment of Neurological Disorders” (Wyeth, priority 2008, published 2009)
